Measurements reported in PubChem BioAssay (NCI).
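The compound was tested at five concentrations on cells cultured in 96-well plates, with a 48-hour exposure period. GI50 is the concentration that inhibits growth by half. TGI: total growth inhibition.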

Legend:
Test in all cases: NCI tumour cell line growth inhibition, 48 h
786-0 renal = test system: 786-0 renal
A498 renal = test system: A498 renal
A549 NSCLC = test system: A549 NSCLC
ACHN renal = test system: ACHN renal
BT-549 breast = test system: BT-549 breast
CAKI-1 renal = test system: CAKI-1 renal
CCRF-CEM leukemia = test system: CCRF-CEM leukemia
COLO 205 colon = test system: COLO 205 colon
DU-145 prostate = test system: DU-145 prostate
EKVX NSCLC = test system: EKVX NSCLC
HCC-2998 colon = test system: HCC-2998 colon
HCT-116 colon = test system: HCT-116 colon
HCT-15 colon = test system: HCT-15 colon
HL-60(TB) leukemia = test system: HL-60(TB) leukemia
HOP-62 NSCLC = test system: HOP-62 NSCLC
HOP-92 NSCLC = test system: HOP-92 NSCLC
HS 578T breast = test system: HS 578T breast
HT29 colon = test system: HT29 colon
IGROV1 ovarian = test system: IGROV1 ovarian
K-562 leukemia = test system: K-562 leukemia
KM12 colon = test system: KM12 colon
LOX IMVI melanoma = test system: LOX IMVI melanoma
M14 melanoma = test system: M14 melanoma
MALME-3M melanoma = test system: MALME-3M melanoma
MCF7 breast = test system: MCF7 breast
MDA-MB-231 breast = test system: MDA-MB-231 breast
MDA-MB-435 = test system: MDA-MB-435
MOLT-4 leukemia = test system: MOLT-4 leukemia
NCI-H226 lung = test system: NCI-H226 lung

SMILES: Cc1ccc(N=Nc2c(O)ccc3n[nH]nc23)cc1
- GI50 (786-0 renal): 20.3 µM
- TGI (786-0 renal): > 100 µM
- GI50 (A498 renal): 1.99 µM
- TGI (A498 renal): 42.2 µM
- GI50 (A549 NSCLC): 14.2 µM
- TGI (A549 NSCLC): > 100 µM
- GI50 (ACHN renal): 11.5 µM
- TGI (ACHN renal): 69.2 µM
- GI50 (BT-549 breast): 21.2 µM
- TGI (BT-549 breast): > 100 µM
- GI50 (CAKI-1 renal): 4.63 µM
- TGI (CAKI-1 renal): 38.9 µM
- GI50 (CCRF-CEM leukemia): 4.13 µM
- TGI (CCRF-CEM leukemia): 55.6 µM
- GI50 (COLO 205 colon): 22.4 µM
- TGI (COLO 205 colon): 73.9 µM
- GI50 (DU-145 prostate): 16.1 µM
- TGI (DU-145 prostate): 44.9 µM
- GI50 (EKVX NSCLC): 11.6 µM
- TGI (EKVX NSCLC): 50 µM
- GI50 (HCC-2998 colon): 26.2 µM
- TGI (HCC-2998 colon): > 100 µM
- GI50 (HCT-116 colon): 12.5 µM
- TGI (HCT-116 colon): > 100 µM
- GI50 (HCT-15 colon): 12.3 µM
- TGI (HCT-15 colon): 92.4 µM
- GI50 (HL-60(TB) leukemia): 7.32 µM
- TGI (HL-60(TB) leukemia): 57.8 µM
- GI50 (HOP-62 NSCLC): 28 µM
- TGI (HOP-62 NSCLC): > 100 µM
- GI50 (HOP-92 NSCLC): 15.4 µM
- TGI (HOP-92 NSCLC): 83.8 µM
- GI50 (HS 578T breast): 10.9 µM
- TGI (HS 578T breast): 58.4 µM
- GI50 (HT29 colon): 31.8 µM
- TGI (HT29 colon): > 100 µM
- GI50 (IGROV1 ovarian): 12.2 µM
- TGI (IGROV1 ovarian): 50.6 µM
- GI50 (K-562 leukemia): 9.06 µM
- TGI (K-562 leukemia): > 100 µM
- GI50 (KM12 colon): 10.8 µM
- TGI (KM12 colon): 37.9 µM
- GI50 (LOX IMVI melanoma): 12.7 µM
- TGI (LOX IMVI melanoma): > 100 µM
- GI50 (M14 melanoma): 27.8 µM
- TGI (M14 melanoma): > 100 µM
- GI50 (MALME-3M melanoma): 8.17 µM
- TGI (MALME-3M melanoma): 48 µM
- GI50 (MCF7 breast): 9.25 µM
- TGI (MCF7 breast): 97.5 µM
- GI50 (MDA-MB-231 breast): 13 µM
- TGI (MDA-MB-231 breast): > 100 µM
- GI50 (MDA-MB-435): 4.47 µM
- TGI (MDA-MB-435): 37.5 µM
- GI50 (MOLT-4 leukemia): 2.89 µM
- TGI (MOLT-4 leukemia): 12.8 µM
- GI50 (NCI-H226 lung): 15.3 µM
- TGI (NCI-H226 lung): > 100 µM
